Laboratory results from ChEMBL document CHEMBL3792342, “Synthesis and biological evaluation of 2-arylimino-3-pyridin-thiazolineone derivatives as antibacterial agents” (Bioorg Med Chem Lett, 2016).
In brackets after ≈: the same amount, converted by molar mass.

Legend:
[1] = system: Staphylococcus epidermidis; assay: Antibacterial activity against Staphylococcus epidermidis ATCC 35984 by broth micro-dilution method; type: functional; settings: RP62A
Staphylococcus aureus = assay: Antibacterial activity against methicillin-resistant Staphylococcus aureus 8282 by broth micro-dilution method; type: functional
[2] = Cytotoxicity against African green monkey Vero cells; type: cell-based; settings: chlorocebus sabaeus
Escherichia coli = assay: Antibacterial activity against Escherichia coli ATCC 25922 by broth micro-dilution method; type: functional
[3] = system: Staphylococcus epidermidis; assay: Bactericidal activity against Staphylococcus epidermidis ATCC 35984; type: functional; settings: RP62A
[4] = Hemolytic activity in human erythrocytes at 200 uM; type: ADME, cell-based; settings: erythrocyte

| SMILES | MIC [1] | MIC (Staphylococcus aureus) | CC50 [2] | MIC (Escherichia coli) | MBC [3] | Activity [4] |
| --- | --- | --- | --- | --- | --- | --- |
| CCc1ccccc1/N=C1\S/C(=C\c2ccc(OCC(=O)O)c(OC)c2)C(=O)N1c1ccccc1CC | 25 µM (≈ 12.9 µg/mL) | 25 µM (≈ 12.9 µg/mL) | 50 µM | > 200 µM | 100 µM (≈ 51.7 µg/mL) | Non-toxic |
| O=C(O)c1cccc(-c2ccc(/C=C3\S/C(=N\c4ccc(F)cc4)N(c4ccc(F)cc4)C3=O)s2)c1 | 6.25 µM (≈ 3.24 µg/mL) | 6.25 µM (≈ 3.24 µg/mL) | > 200 µM | > 200 µM | 100 µM (≈ 51.9 µg/mL) | Non-toxic |
| O=C(O)c1cccc(-c2ccc(/C=C3\S/C(=N\c4ccc(Cl)cc4)N(c4ccc(Cl)cc4)C3=O)s2)c1 | 12.5 µM (≈ 6.89 µg/mL) | 25 µM (≈ 13.8 µg/mL) | > 200 µM | > 200 µM | > 200 µM | Non-toxic |
| O=C(O)c1cccc(-c2ccc(/C=C3\S/C(=N\c4ccc(Cl)cc4)N(c4ncccc4F)C3=O)o2)c1 | 12.5 µM (≈ 6.5 µg/mL) | 12.5 µM (≈ 6.5 µg/mL) | > 200 µM | > 200 µM | > 200 µM | Non-toxic |
| O=C(O)c1cccc(-c2ccc(/C=C3\S/C(=N\c4ccc(Cl)cc4)N(c4ccccn4)C3=O)o2)c1 | 6.25 µM (≈ 3.14 µg/mL) | 6.25 µM (≈ 3.14 µg/mL) | > 200 µM | > 200 µM | 50 µM (≈ 25.1 µg/mL) | Non-toxic |
| O=C(O)c1cccc(-c2ccc(/C=C3\S/C(=N\c4ccc(F)cc4)N(c4ccccn4)C3=O)o2)c1 | 12.5 µM (≈ 6.07 µg/mL) | 12.5 µM (≈ 6.07 µg/mL) | > 200 µM | > 200 µM | > 200 µM | Non-toxic |
| O=C(O)c1cccc(-c2ccc(/C=C3\S/C(=N\c4ccccc4)N(c4ccc(Cl)cc4)C3=O)o2)c1 | 6.25 µM (≈ 3.13 µg/mL) | 6.25 µM (≈ 3.13 µg/mL) | > 200 µM | > 200 µM | 50 µM (≈ 25 µg/mL) | Non-toxic |
| O=C(O)c1cccc(-c2ccc(/C=C3\S/C(=N\c4ccccc4)N(c4cccc(F)n4)C3=O)o2)c1 | 6.25 µM (≈ 3.03 µg/mL) | 6.25 µM (≈ 3.03 µg/mL) | > 200 µM | > 200 µM | 100 µM (≈ 48.5 µg/mL) | Non-toxic |
| O=C(O)c1cccc(-c2ccc(/C=C3\S/C(=N\c4ccccc4)N(c4ccc(F)cn4)C3=O)o2)c1 | 12.5 µM (≈ 6.07 µg/mL) | 12.5 µM (≈ 6.07 µg/mL) | > 200 µM | > 200 µM | > 200 µM | Non-toxic |
| O=C(O)c1cccc(-c2ccc(/C=C3\S/C(=N\c4ccccc4)N(c4ccc(F)cc4)C3=O)s2)c1 | 6.25 µM (≈ 3.13 µg/mL) | 12.5 µM (≈ 6.26 µg/mL) | > 200 µM | > 200 µM | 25 µM (≈ 12.5 µg/mL) | Non-toxic |
| O=C(O)c1cccc(-c2ccc(/C=C3\S/C(=N\c4ccccc4)N(c4ccc(F)cn4)C3=O)s2)c1 | 3.13 µM (≈ 1.57 µg/mL) | 3.13 µM (≈ 1.57 µg/mL) | > 200 µM | > 200 µM | 50 µM (≈ 25.1 µg/mL) | Non-toxic |
| O=C(O)c1cccc(-c2ccc(/C=C3\S/C(=N\c4ccc(Cl)cc4)N(c4ccccc4)C3=O)o2)c1 | 6.25 µM (≈ 3.13 µg/mL) | 6.25 µM (≈ 3.13 µg/mL) | > 200 µM | > 200 µM | 100 µM (≈ 50.1 µg/mL) | Non-toxic |
| O=C(O)c1cccc(-c2ccc(/C=C3\S/C(=N\c4ccccc4)N(c4cccnc4Cl)C3=O)o2)c1 | 3.13 µM (≈ 1.57 µg/mL) | 6.25 µM (≈ 3.14 µg/mL) | > 200 µM | > 200 µM | 50 µM (≈ 25.1 µg/mL) | Non-toxic |
| O=C(O)c1cccc(-c2ccc(/C=C3\S/C(=N\c4ccc(F)cc4)N(c4ccc(F)cc4)C3=O)o2)c1 | 100 µM (≈ 50.2 µg/mL) | 100 µM (≈ 50.2 µg/mL) | > 200 µM | > 200 µM | > 200 µM | Non-toxic |
| O=C(O)c1cccc(-c2ccc(/C=C3\S/C(=N\c4ccccc4)N(c4ncccc4F)C3=O)o2)c1 | 12.5 µM (≈ 6.07 µg/mL) | 12.5 µM (≈ 6.07 µg/mL) | > 200 µM | > 200 µM | > 200 µM | Non-toxic |
| O=C(O)c1cccc(-c2ccc(/C=C3\S/C(=N\c4ccc(Cl)cc4)N(c4ccc(Cl)cc4)C3=O)o2)c1 | 25 µM (≈ 13.4 µg/mL) | 25 µM (≈ 13.4 µg/mL) | > 200 µM | > 200 µM | > 200 µM | Non-toxic |
| O=C(O)c1cccc(-c2ccc(/C=C3\S/C(=N\c4ccccc4)N(c4cccnc4[N+](=O)[O-])C3=O)s2)c1 | 1.56 µM (≈ 0.825 µg/mL) | 3.13 µM (≈ 1.65 µg/mL) | > 200 µM | > 200 µM | 12.6 µM (≈ 6.66 µg/mL) | Non-toxic |
| O=C(O)c1cccc(-c2ccc(/C=C3\S/C(=N\c4ccccc4)N(c4ccc(Cl)cc4)C3=O)s2)c1 | 1.56 µM (≈ 0.807 µg/mL) | 3.13 µM (≈ 1.62 µg/mL) | > 200 µM | > 200 µM | 25 µM (≈ 12.9 µg/mL) | Non-toxic |
| O=C(O)c1cccc(-c2ccc(/C=C3\S/C(=N\c4ccccc4)N(c4cccnc4Cl)C3=O)s2)c1 | 1.56 µM (≈ 0.808 µg/mL) | 3.13 µM (≈ 1.62 µg/mL) | > 200 µM | > 200 µM | 6.3 µM (≈ 3.26 µg/mL) | Non-toxic |
| Cc1ncccc1N1C(=O)/C(=C/c2ccc(-c3cccc(C(=O)O)c3)s2)S/C1=N\c1ccccc1 | 12.5 µM (≈ 6.22 µg/mL) | 12.5 µM (≈ 6.22 µg/mL) | > 200 µM | > 200 µM | 100 µM (≈ 49.8 µg/mL) | Non-toxic |
| O=C(O)c1cccc(-c2ccc(/C=C3\S/C(=N\c4ccccc4)N(c4ccc(F)cc4)C3=O)o2)c1 | 25 µM (≈ 12.1 µg/mL) | 25 µM (≈ 12.1 µg/mL) | > 200 µM | > 200 µM | 50 µM (≈ 24.2 µg/mL) | Non-toxic |
| COc1cccc(OC)c1C(=O)N[C@@H]1C(=O)N2[C@@H]1SC(C)(C)[C@@H]2C(=O)O [METHICILLIN] | 3.13 µM (≈ 1.19 µg/mL) | 100 µM (≈ 38 µg/mL) | > 200 µM | > 200 µM | > 200 µM | Non-toxic |
